The values below come from US20240294988A1, “METHODS OF DETERMINING RESPONSIVENESS TO CHEMOTHERAPEUTIC COMPOUNDS FOR CANCER THERAPY” (Northwestern University, priority 2021, published 2024).

For series [1] the following is noted: pharmacologic data and clinical investigations; cited from earlier work.
In series [2] the test system is H4 SSR3 KO and control cells. In words: Microtubule polymerization, alpha-tubulin immunofluorescence in H4 cells. In kind it is cell-based, human. Conditions: PTX 0.5 μM, 48 h. As for the experimental part: H4 SSR3 knockout and non-targeting control cells were grown on glass coverslips. […] The cells were then stained with α-tubulin and SSR3 antibodies at 1:100 dilution and the images were acquired on the Nikon A1 (C) confocal microscope. Microtubule bundles per cell cluster were counted for the analysis.

The conditions of series [3]: mice, systemic delivery of ABX; cited from earlier work.
The test system of series [4] is H4. The series is described as follows: Cell viability assay (PTX dose response, CellTiter Glo) in glioma cell lines. In kind it is cell-based, human. Conditions: H4 glioma cell line, PTX dose response curve. The method, then: GBM cells were seeded at a density of 5000 cells per well in a 96 well plate. One day after seeding, cells were checked for attachment and confluence (60-70%). […] 72 hours later cell viability was determined by CellTiter Glo (Promega).

Structures are written as SMILES. “Also recorded” adds a separate entry of the source.

For the molecule `CC(=O)O[C@H]1C(=O)[C@@]2(C)[C@H]([C@H](OC(=O)c3ccccc3)[C@]3(O)C[C@H](OC(=O)[C@H](O)[C@@H](NC(=O)c4ccccc4)c4ccccc4)C(C)=C1C3(C)C)[C@]1(OC(C)=O)CO[C@@H]1C[C@@H]2O` [PTX, Paclitaxel], in series [1], the “crossing of the BBB” value is “does not cross the BBB”. In addition, in series [2], the “effect on microtubule polymerization” value is listed as “stabilization of microtubule polymerization”. In addition, in series [3], the “enhancement of brain penetration of PTX by ultrasound therapy” value is listed as 3-5 fold. The “sensitivity to PTX among glioma cell lines” value in series [4] was “most sensitive; also recorded: highest degree of sensitivity”.
